In paper PMC2375326, “In vitro evaluation of amino acid prodrugs of novel antitumour 2-(4-amino-3-methylphenyl)benzothiazoles” (British Journal of Cancer, 2002):

What was measured:
Assay type in all cases: cell-based
CCRF-CEM = assay: NCI in vitro cytotoxicity assay (SRB), CCRF-CEM; conditions: Homo sapiens, 48 h exposure, sulforhodamine B assay, mean graph, read-out: Log10 GI50 (CCRF-CEM) (converted)
Procedure: (§1) Cell culture and drug application procedures have been described previously ([Boyd and Paull, 1995]). Briefly, cell lines were inoculated into a series of 96-well microtiter plates, with varied seeding densities depending on growth characteristics of each cell line. Following a 24 h drug free incubation, test agents were added at five 10-fold dilutions with a maximum concentration of 100 μM. Cellular protein levels were determined after 48 h drug exposure by sulphorhodamine B colorimetry.

SF-295 = assay: NCI in vitro cytotoxicity assay (SRB), SF-295; conditions: Homo sapiens, 48 h exposure, sulforhodamine B assay, mean graph, read-out: Log10 GI50 (SF-295) (converted)
Procedure: as §1

OVCAR-4 = assay: NCI in vitro cytotoxicity assay (SRB), OVCAR-4; conditions: Homo sapiens, 48 h exposure, sulforhodamine B assay, mean graph, read-out: Log10 GI50 (OVCAR-4) (converted)
Procedure: as §1

| SMILES | GI50 (CCRF-CEM) | GI50 (SF-295) | GI50 (OVCAR-4) |
| --- | --- | --- | --- |
| Cc1cc(-c2nc3cc(F)ccc3s2)ccc1N [Compound 2, 2-(4-Amino-3-methylphenyl)-5-fluorobenzothiazole] | 1230 nM | 20900 nM | – |
| Cc1cc(-c2nc3cc(F)ccc3s2)ccc1NC(=O)[C@@H](N)CCCCN [Compound 2b] | – | – | 2040 nM |
